Laboratory results as given in paper PMC12525728, “Safety, Pharmacokinetics, Translational and Molecular Mechanistic Insights on the Prostate Cancer Recurrence Suppressor Pseurotin A” (Molecules, 2025).

Assays:
Swiss albino mice = experiment: 90-day daily oral dosing sub-chronic toxicity study (body weight, behavior, organ weight, histology); format: in vivo; conditions: for Relative organ weight, Brain / Relative organ weight, Heart / Relative organ weight, Kidneys / Relative organ weight, Liver / Relative organ weight, Lungs / Relative organ weight, Spleen: mean ± SD
Experimental: (§1) For the 90-day daily oral dosing sub-chronic toxicity study, twenty male and twenty female healthy 8-week-old Swiss albino mice were randomly selected and randomized to […] (n = 5/sex/group). Mice received free access to purified drinking water and high-fat diet (HFD) pelleted rodent chow (11.4% total fat, no. 7004, Envigo/Teklad, Madison, WI, USA) until the day before sacrifice, at which time they were fasted for 8 h and allowed only free access to drinking water. Daily doses of PsA (10, 40, 80 mg/kg body weight) were administered to the mice formulated in <5% DMSO (Mediatech Inc., Manassas, VA, USA) and <0.2% Tween 80 (Croda Inc., Princeton, NJ, USA) at a volume not exceeding 1% of body weight by metal oral gavage (2 mm diameter with stainless steel bite protector, 18-gauge, 3.81 cm long). […] The mice were observed weekly until the completion of the study. The body weights of the mice were measured in grams using a Scout^TM Pro (Ohaus Corp., Pine Brook, NJ, USA) on day 0, 4, 8, 11, 14, 21, 28, 35, 42, 49, 56, 63, 70, 77, 83, and 90 after initial treatment. On day 90, all mice were anesthetized using isoflurane (USP-vaporizer method, Matrix VIP-3000, Covetrus, Dublin, OH, USA, exposure of animals in an anesthesia chamber at 3% isoflurane vaporization rate. Exposure time 2 min). Mice were then euthanized by cervical dislocation according to the 2020 AVMA Guidelines on Euthanasia and dissected. Mice organs (brain, liver, kidney, heart, lungs, spleen) were excised and weighed for histopathological examination. The organs were stored in 10% neutral buffered formalin (Avantor Science Central, Allentown, PA, USA) for 24 h and then transferred to 70% ethanol (AAPER ALCOHOL, Shelbyville, KY, USA). This study was performed following the OECD guideline 408 for the testing of chemicals.
The experimental animals’ organs were carefully excised and quickly fixed in 10% neutral buffered formalin for 24 h before being transferred to 70% ethanol. The organs were embedded in paraffin before sectioning and staining with hematoxylin and eosin (H&E). All sectioning and staining were conducted at the AML Laboratories (Jacksonville, FL, USA). The paraffin-embedded tissues were sliced into 5 µm-thick sections before being mounted on a positively charged slide. The 5 µm-thick sections were then dewaxed using xylene, rinsed using 80–95% ethanol, and rehydrated using H2O. They were subsequently stained with H&E before being dehydrated again using 80–95% ethanol to xylene.
Results for the hematological and biochemical parameters were analyzed separately by One-way Analysis of Variance (ANOVA), followed by multiple comparisons with Dunnett’s test. All statistical analyses were performed using GraphPad Prism version 8 software (San Diego, CA, USA). Data in this study were expressed as a mean ± SD (standard deviation) and mean ± SEM (standard error of mean). A probability value of <0.05 was considered statistically significant (* p < 0.05; ** p < 0.01; and *** p < 0.001).

[1] = test system: HFD-fed Swiss albino mice; experiment: Systemic cholesterol monitoring assay in HFD-fed mice, 90-day oral dosing; format: in vivo; conditions: 90 days; for reduction of HFD-induced hypercholesterolemia relative to the control: female; for plasma cholesterol relative reduction versus the control group: male
Experimental: Plasmatic cholesterol concentrations in mice were determined using a total cholesterol kit (EnzyChrom^TM Cholesterol Assay Kit ECCH-100 BioAssay Systems, Hayward, CA, USA), adhering to the manufacturer’s instructions. Colorimetric quantitation was measured at 340 nm using a Synergy 2 microplate reader (BioTek Instruments Inc., Winooski, VT, USA). Blood was collected through tail vein extraction on the day before treatment, day 35, and day 90. Blood was quickly collected into green-topped Lithium Heparin 400 µL blood collection tubes (BD Microtainer REF# 365965 Becton, Dickinson and Company, Franklin Lakes, NJ, USA), centrifuged at 13,000× g for 10 min, and the upper layer of plasma was transferred to 1.5 mL Eppendorf tubes (Thermo Fisher Scientific, Waltham, MA, USA) and stored at −20 °C until analysis.
as §1

[2] = female, 10mg/kg daily oral 90 days
[3] = female, 40mg/kg daily oral 90 days
[4] = female, 80mg/kg daily oral 90 days
[5] = male, 10mg/kg daily oral 90 days
[6] = male, 40mg/kg daily oral 90 days
[7] = male, 80mg/kg daily oral 90 days

Question: `CC/C=C\[C@H](O)[C@H](O)C1=C(C)C(=O)[C@]2(O1)C(=O)N[C@@](OC)(C(=O)c1ccccc1)[C@@H]2O` [PsA, pseurotin A] was tested. Which “behavioral, neuromuscular and autonomic responses” value (Swiss albino mice; daily oral doses over 90 days) did it give?
Answer: Its value is “no observable effects”.

Question: What about the “Relative organ weight, Brain” value (Swiss albino mice; [2]) of the same molecule?
Answer: The value was 438.5 ± 18.9.

Question: What about the “Relative organ weight, Heart” value (Swiss albino mice; [2]) of the same molecule?
Answer: The value was 197.7 ± 33.5.

Question: And the “Relative organ weight, Kidneys” value (Swiss albino mice; [2])?
Answer: The value was 475.9 ± 31.8.

Question: And the “Relative organ weight, Liver” value (Swiss albino mice; [2])?
Answer: Its value is 1218 ± 31.6.

Question: And the “Relative organ weight, Lungs” value (Swiss albino mice; [2])?
Answer: The value was 211.7 ± 40.2.

Question: What about the “Relative organ weight, Spleen” value (Swiss albino mice; [2]) of the same molecule?
Answer: The value was 106.3 ± 48.4.

Question: And the “Relative organ weight, Brain” value (Swiss albino mice; [3])?
Answer: Its value is 355.1 ± 25.2.

Question: What about the “Relative organ weight, Heart” value (Swiss albino mice; [3]) of the same molecule?
Answer: The value was 186.2 ± 12.3.

Question: What about the “Relative organ weight, Kidneys” value (Swiss albino mice; [3]) of the same molecule?
Answer: Its value is 470.4 ± 87.8.

Question: And the “Relative organ weight, Liver” value (Swiss albino mice; [3])?
Answer: Its value is 1311 ± 135.7.

Question: What about the “Relative organ weight, Lungs” value (Swiss albino mice; [3]) of the same molecule?
Answer: The value was 229.0 ± 37.1.

Question: And the “Relative organ weight, Spleen” value (Swiss albino mice; [3])?
Answer: Its value is 125.1 ± 22.6.

Question: And the “Relative organ weight, Brain” value (Swiss albino mice; [4])?
Answer: Its value is 376.7 ± 47.4.

Question: And the “Relative organ weight, Heart” value (Swiss albino mice; [4])?
Answer: Its value is 231.1 ± 24.4.

Question: And the “Relative organ weight, Kidneys” value (Swiss albino mice; [4])?
Answer: Its value is 461.9 ± 20.6.

Question: And the “Relative organ weight, Liver” value (Swiss albino mice; [4])?
Answer: Its value is 1369 ± 146.3.

Question: What about the “Relative organ weight, Lungs” value (Swiss albino mice; [4]) of the same molecule?
Answer: Its value is 236.9 ± 66.2.

Question: And the “Relative organ weight, Spleen” value (Swiss albino mice; [4])?
Answer: The value was 109.7 ± 20.2.

Question: And the “average heart weight versus vehicle control” value (Swiss albino mice; male 10 mg/kg and 40 mg/kg groups, 90 days)?
Answer: Its value is “significant decrease”.

Question: What about the “body weight versus vehicle control” value (Swiss albino mice; male and female, 10, 40, 80 mg/kg daily oral 90 days, sixteen time points) of the same molecule?
Answer: The value was “did not show any significant changes”.

Question: And the “Relative organ weight, Heart” value (Swiss albino mice; [5])?
Answer: Its value is 248.1 ± 54.6.

Question: What about the “Relative organ weight, Kidneys” value (Swiss albino mice; [5]) of the same molecule?
Answer: The value was 684.7 ± 41.0.

Question: And the “Relative organ weight, Liver” value (Swiss albino mice; [5])?
Answer: The value was 1881 ± 134.3.

Question: What about the “Relative organ weight, Lungs” value (Swiss albino mice; [5]) of the same molecule?
Answer: The value was 288.8 ± 62.4.

Question: And the “Relative organ weight, Spleen” value (Swiss albino mice; [5])?
Answer: Its value is 114.7 ± 21.4.

Question: And the “Relative organ weight, Brain” value (Swiss albino mice; [6])?
Answer: The value was 413.6 ± 54.5.

Question: And the “Relative organ weight, Heart” value (Swiss albino mice; [6])?
Answer: Its value is 261.7 ± 25.2.

Question: What about the “Relative organ weight, Kidneys” value (Swiss albino mice; [6]) of the same molecule?
Answer: Its value is 747.5 ± 92.3.

Question: What about the “Relative organ weight, Liver” value (Swiss albino mice; [6]) of the same molecule?
Answer: Its value is 1869 ± 295.8.

Question: What about the “Relative organ weight, Lungs” value (Swiss albino mice; [6]) of the same molecule?
Answer: Its value is 302.1 ± 23.5.

Question: What about the “Relative organ weight, Spleen” value (Swiss albino mice; [6]) of the same molecule?
Answer: Its value is 118.5 ± 3.9.

Question: What about the “Relative organ weight, Brain” value (Swiss albino mice; [7]) of the same molecule?
Answer: Its value is 409.2 ± 28.3.

Question: And the “Relative organ weight, Heart” value (Swiss albino mice; [7])?
Answer: The value was 320.8 ± 58.9.

Question: What about the “Relative organ weight, Kidneys” value (Swiss albino mice; [7]) of the same molecule?
Answer: The value was 673.7 ± 50.1.

Question: And the “Relative organ weight, Liver” value (Swiss albino mice; [7])?
Answer: Its value is 1946 ± 272.4.

Question: What about the “Relative organ weight, Lungs” value (Swiss albino mice; [7]) of the same molecule?
Answer: The value was 209.9 ± 61.0.

Question: And the “Relative organ weight, Spleen” value (Swiss albino mice; [7])?
Answer: Its value is 108.7 ± 12.1.

Question: What about the “organ histology (liver, lungs, kidneys, heart, brain) versus vehicle control” value (Swiss albino mice; up to 80 mg/kg, 90-day dosing, H&E) of the same molecule?
Answer: Its value is “no structural or morphological differences”.

Question: And the “reduction of HFD-induced hypercholesterolemia relative to the control” value ([1]; 10 mg/kg daily oral)?
Answer: The value was −80.7%.

Question: What about the “reduction of HFD-induced hypercholesterolemia relative to the control” value ([1]; 40 mg/kg daily oral) of the same molecule?
Answer: The value was −92.9%.

Question: And the “reduction of HFD-induced hypercholesterolemia relative to the control” value ([1]; 80 mg/kg daily oral)?
Answer: The value was −85.5%.

Question: What about the “plasma cholesterol relative reduction versus the control group” value ([1]; 10 mg/kg daily oral) of the same molecule?
Answer: The value was −96.1%.

Question: What about the “plasma cholesterol relative reduction versus the control group” value ([1]; 40 mg/kg daily oral) of the same molecule?
Answer: The value was −107.3%.

Question: What about the “plasma cholesterol relative reduction versus the control group” value ([1]; 80 mg/kg daily oral) of the same molecule?
Answer: Its value is −116.7%.
